Bounds are passed on as bounds.

The target in the assay is T1, human SARM1(50-724) (Homo sapiens, UniProt Q6SZW1).
T1 construct: 40 nM human SARM1(50-724)
T1 sequence (Q6SZW1 50-724): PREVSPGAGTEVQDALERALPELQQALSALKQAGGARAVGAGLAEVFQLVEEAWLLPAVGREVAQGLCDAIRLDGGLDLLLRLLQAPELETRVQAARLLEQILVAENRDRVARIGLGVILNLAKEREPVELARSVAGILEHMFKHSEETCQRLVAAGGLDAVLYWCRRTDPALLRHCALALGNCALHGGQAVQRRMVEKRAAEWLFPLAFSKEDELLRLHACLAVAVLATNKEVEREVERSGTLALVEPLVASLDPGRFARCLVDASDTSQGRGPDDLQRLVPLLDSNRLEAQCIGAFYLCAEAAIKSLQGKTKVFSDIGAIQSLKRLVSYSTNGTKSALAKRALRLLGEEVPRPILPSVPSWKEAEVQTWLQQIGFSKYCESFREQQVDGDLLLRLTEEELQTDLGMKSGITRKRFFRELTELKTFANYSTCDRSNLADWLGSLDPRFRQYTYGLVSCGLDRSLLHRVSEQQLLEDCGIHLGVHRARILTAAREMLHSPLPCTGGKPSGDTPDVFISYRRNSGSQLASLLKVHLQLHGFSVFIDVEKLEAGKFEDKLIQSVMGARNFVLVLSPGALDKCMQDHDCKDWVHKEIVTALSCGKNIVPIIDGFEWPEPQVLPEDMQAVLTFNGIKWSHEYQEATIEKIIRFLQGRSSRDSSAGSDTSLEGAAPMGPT
As to the kind of experiment: SARM1 NADase biochemical assay (HPLC of NAD and NAM). The settings on record: 40 nM human SARM1(50-724), 0.3 mM NMN, 20 μM NAD, 60 minutes room temperature; dose-response from 100 μM, 1:3 dilution. Summed up: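 Human SARM1(50-724) at 40 nM with 0.3 mM NMN, 20 μM NAD, 1 mM TCEP in 25 mM HEPES pH 7.4, 10 mM KCl, 10 mM MgCl2, 1% DMSO; 60 min at room temperature, formic acid quench. NAD and NAM quantified by reverse-phase HPLC peak area; single point 50 μM or 1:3 series from 100 μM.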
Turning to `N[C@@H](Cc1ccc(Cl)cc1)C(=O)Nc1cc(-c2ccncc2)n[nH]1` [Example 153, (S)-2-Amino-3-(4-chlorophenyl)-N-(3-(pyridin-4-yl)-1H-pyrazol-5-yl)propanamide], the IC50 (usually the concentration needed to halve the response being measured) was under 1000 nM.

`O=C1N(Cc2ccc(Cl)cc2)CCN1c1cnn(-c2ccncc2)c1` [Example 158, 1-(4-Chlorobenzyl)-3-(1-(pyridin-4-yl)-1H-pyrazol-4-yl)imidazolidin-2-one]: the 50% inhibitory concentration (IC50) lay within 1000 to 10000 nM.

As to `O=C1N(Cc2ccc(Cl)cc2)CCCN1c1cnn(-c2ccncc2)c1` [Example 159, 1-(4-Chlorobenzyl)-3-(1-(pyridin-4-yl)-1H-pyrazol-4-yl)tetrahydropyrimidin-2(1H)-one], the IC50 was 1000 to 10000 nM.

Take `S=C(NCc1ccc(Cl)cc1)Nc1cnn(-c2ccncc2)c1` [Example 160, 1-(4-Chlorobenzyl)-3-(1-(pyridin-4-yl)-1H-pyrazol-4-yl)thiourea]: the concentration for half-maximal inhibition (IC50) lay in the range of 1000 to 10000 nM.

As to `Cc1c(-c2ccncc2)n[nH]c1NC(=O)NCc1ccc(Cl)cc1` [Example 161, 1-(4-Chlorobenzyl)-3-(4-methyl-3-(pyridin-4-yl)-1H-pyrazol-5-yl)urea], the half-maximal inhibitory concentration (IC50) is under 1000 nM.

For the compound `O=C(CCc1ccc(Cl)cc1)Nc1nnc(-c2ccncc2)[nH]1` [Example 162, 3-(4-Chlorophenyl)-N-(5-(pyridin-4-yl)-4H-1,2,4-triazol-3-yl)propanamide], the half-inhibitory concentration (IC50) was under 1000 nM.

Turning to `O=C(NCc1cc(F)c(Cl)c(F)c1)Nc1cc(-c2ccncc2)n[nH]1` [Example 163, 1-(4-Chloro-3,5-difluorobenzyl)-3-(3-(pyridin-4-yl)-1H-pyrazol-5-yl)urea], the IC50 is under 1000 nM.

Consider `O=C(NCc1cc(F)c(F)c(F)c1)Nc1cc(-c2ccncc2)n[nH]1` [Example 164, 1-(3-(Pyridin-4-yl)-1H-pyrazol-5-yl)-3-(3,4,5-trifluorobenzyl)urea], for which the IC50 was under 1000 nM.

On to `O=C(NCc1ccc(Cl)cc1)Nc1cc(-c2ccncc2)n[nH]1` [Example 165, 1-(4-Chlorobenzyl)-3-(3-(pyridin-4-yl)-1H-pyrazol-5-yl)urea], for which the half-inhibitory concentration (IC50) is under 1000 nM.

For `O=C(CCc1cc(F)c(F)c(F)c1)Nc1[nH]nc(-c2ccncc2)c1Cl` [Example 167, N-(4-Chloro-3-(pyridin-4-yl)-1H-pyrazol-5-yl)-3-(3,4,5-trifluorophenyl)propanamide], the IC50 is under 1000 nM.

Consider `O=C(NCc1ccc(Cl)cc1)Nc1[nH]nc(-c2ccncc2)c1Cl` [Example 168, 1-(4-Chloro-3-(pyridin-4-yl)-1H-pyrazol-5-yl)-3-(4-chlorobenzyl)urea], for which the concentration for half-maximal inhibition (IC50) is under 1000 nM.

As to `COc1cnccc1-c1cc(NC(=O)CCc2ccc(Cl)cc2)[nH]n1` [Example 169, 3-(4-Chlorophenyl)-N-(3-(3-methoxypyridin-4-yl)-1H-pyrazol-5-yl)propanamide], the IC50 fell in the range of 1000 to 10000 nM.

On to `O=C(CCc1ccc(Cl)cc1)Nc1cc(-c2ccncc2F)n[nH]1` [Example 170, 3-(4-Chlorophenyl)-N-(3-(3-fluoropyridin-4-yl)-1H-pyrazol-5-yl)propanamide], for which the IC50 is under 1000 nM.

For the origin of these results see patent US12404265B2, “Substituted pyridine derivatives as SARM1 inhibitors” (Nura Bio, Inc., priority 2020, dated 2025).
